pEC50: −log10 of the molar value.

The target of this experiment is T1, human GPR119 (Homo sapiens, UniProt Q8TDV5).
T1 construct: expressed in transfected cells
T1 sequence (Q8TDV5 1-335): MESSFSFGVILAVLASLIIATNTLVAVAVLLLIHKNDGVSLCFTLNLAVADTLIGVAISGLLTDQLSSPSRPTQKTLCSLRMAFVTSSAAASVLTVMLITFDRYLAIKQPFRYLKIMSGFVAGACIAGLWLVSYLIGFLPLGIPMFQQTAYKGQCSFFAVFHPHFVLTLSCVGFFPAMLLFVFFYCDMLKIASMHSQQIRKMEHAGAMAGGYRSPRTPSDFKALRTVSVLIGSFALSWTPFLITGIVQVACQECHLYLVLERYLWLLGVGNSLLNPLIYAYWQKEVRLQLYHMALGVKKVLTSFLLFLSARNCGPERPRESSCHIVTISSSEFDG
Description: Cyclic AMP assay (HTRF) in stable Flp-In-CHO-hGPR119 cell line. Format: cell-based. The conditions noted are these: Flp-In-CHO-hGPR119 cells, intracellular cAMP, 30 minutes at 37° C., 1 mM IBMX, read-out: CHO-GPR119-HTRF (3158) EC50. The procedure: Flp-In-CHO cells (Invitrogen, Cat. # R758-07) are maintained in Ham's F12 medium supplemented with 10% fetal bovine serum, 1% antibiotic mixture and 2 mM L-glutamine. The cells are transfected with a DNA mixture containing human GPR119 in pcDNA5/FRT vector and the pOG44 vector (1:9) using Fugene6 (Roche), according to the manufacturer's instruction. After 48 hours, the medium is changed to medium supplemented with 400 μg/ml hygromycin B to initiate the selection of stably transfected cells.
To test the activity of compounds of the invention, Flp-In-CHO-hGPR119 cells are harvested and resuspended in DMEM plus 3% lipid-depleted fetal bovine serum. Forth μl of cells are plated in 384 well plates at a density of 15,000 cells/well. IBMX (3-isobutyl-1-methyl-xanthine) is added to the cells to a final concentration of 1 mM, followed by the addition of 500 nl of the compound to be tested. The cells are incubated at 37° C. for 30 minutes. Equal volume (20 μl) of the HTRF reagents, anti-cAMP-Cryptate and cAMP-XL665, are added to the cells. The plates are incubated at room temperature for 1 hour and read on a HTRF reader according to the manufacturer's instruction.
Compounds of Formula I, in free form or in pharmaceutically acceptable salt form, produced a concentration-dependent increase in intracellular cAMP level. […] Specific EC50 data is presented for some of the compounds of the invention in the table, infra.
In general terms: In TR-FRET formats the signal depends on donor and acceptor labels being close together.
`CC(C)OC(=O)N1CCc2cc(O[C@H]3CCN(c4ccc(S(C)(=O)=O)cc4)C3)ccc2C1` [Example 1, (S)-isopropyl 6-(1-(4-(methylsulfonyl)phenyl)pyrrolidin-3-yloxy)-3,4-dihydroisoquinoline-2(1H)-carboxylate]: the pEC50 – broadly, −log10 of the EC50, conventionally taken in molar units – is 7.07.
With `CC(C)OC(=O)N1CCc2cc(O[C@H]3CCN(c4ccc(S(C)(=O)=O)cc4F)C3)ccc2C1` [Example 2, (S)-isopropyl 6-(1-(2-fluoro-4-(methylsulfonyl)phenyl)pyrrolidin-3-yloxy)-3,4-dihydroisoquinoline-2(1H)-carboxylate] the figure was 7.38.
With `CC(C)OC(=O)N1CCc2cc(CO[C@H]3CCN(c4ccc(S(C)(=O)=O)cc4)C3)ccc2C1` [Example 3, (S)-isopropyl 6-((1-(4-(methylsulfonyl)phenyl)pyrrolidin-3-yloxy)methyl)-3,4-dihydroisoquinoline-2(1H)-carboxylate] the figure was 6.69.
Next, `CC(C)OC(=O)N1CCc2ccc(CO[C@H]3CCN(c4ccc(S(C)(=O)=O)cc4)C3)cc2C1` [Example 4, (S)-isopropyl 7-((1-(4-(methylsulfonyl)phenyl)pyrrolidin-3-yloxy)methyl)-3,4-dihydroisoquinoline-2(1H)-carboxylate]: 6.37.
Regarding `CNCc1ccc(O[C@H]2CCN(c3ccc(S(C)(=O)=O)cc3)C2)cc1` [Example 5, (S)—N-methyl-1-(4-(1-(4-(methylsulfonyl)phenyl)pyrrolidin-3-yloxy)phenyl)methanamine], the pEC50 was 6.45.
On to `CNCc1cccc(O[C@H]2CCN(c3ccc(S(C)(=O)=O)cc3)C2)c1` [Example 6, (S)—N-methyl-1-(3-(1-(4-(methylsulfonyl)phenyl)pyrrolidin-3-yloxy)phenyl)methanamine], for which the pEC50 was 6.50.
With `CCN(Cc1ccccc1)Cc1cccc(O[C@H]2CCN(c3ccc(S(C)(=O)=O)cc3)C2)c1` [Example 7] the figure was 6.37; with `CC(C)N(Cc1ccccc1)Cc1cccc(O[C@H]2CCN(c3ccc(S(C)(=O)=O)cc3)C2)c1` [Example 8], 6.23; with `CS(=O)(=O)c1ccc(N2CC[C@H](Oc3cccc(CNCc4ccccc4)c3)C2)c(F)c1` [Example 9], 5.58.
With `CN(Cc1ccccc1)Cc1cccc(O[C@H]2CCN(c3ccc(S(C)(=O)=O)cc3F)C2)c1` [Example 10] the figure was 6.59; with `CCN(Cc1ccccc1)Cc1cccc(O[C@H]2CCN(c3ccc(S(C)(=O)=O)cc3F)C2)c1` [Example 11], 6.45.
Next, `CC(C)N(Cc1ccccc1)Cc1cccc(O[C@H]2CCN(c3ccc(S(C)(=O)=O)cc3F)C2)c1` [Example 12]: 7.48.
On to `CCCN(Cc1ccccc1)Cc1cccc(O[C@H]2CCN(c3ccc(S(C)(=O)=O)cc3F)C2)c1` [Example 13], for which the pEC50 was 6.14.
With `CCN(Cc1cccc(O[C@H]2CCN(c3ccc(S(C)(=O)=O)cc3)C2)c1)C(=O)OC(C)C` [Example 14, (S)-Isopropyl ethyl(3-(1-(4-(methylsulfonyl)phenyl)pyrrolidin-3-yloxy)benzyl)carbamate] the figure was 7.09; with `CCCN(Cc1cccc(O[C@H]2CCN(c3ccc(S(C)(=O)=O)cc3)C2)c1)C(=O)OC(C)C` [Example 15], 6.40; with `CC(C)OC(=O)N(Cc1cccc(O[C@H]2CCN(c3ccc(S(C)(=O)=O)cc3)C2)c1)C(C)C` [Example 16], 6.70.
With `CC(C)OC(=O)N(C)Cc1cccc(O[C@H]2CCN(c3ccc(S(C)(=O)=O)cc3)C2)c1` [Example 17] the figure was 6.58.
Next, `CC(C)OC(=O)OCc1cccc(O[C@H]2CCN(c3ccc(S(C)(=O)=O)cc3F)C2)c1` [Example 18, (S)-3-(1-(2-fluoro-4-(methylsulfonyl)phenyl)pyrrolidin-3-yloxy)benzyl isopropyl carbonate]: 6.10.
In the case of `CC(C)OC(=O)OCc1ccc(O[C@@H]2CCN(c3ccc(S(C)(=O)=O)cc3F)C2)cc1` [Example 19], the pEC50 was 5.99.
Take `CC(C)OC(=O)OCCc1cccc(O[C@@H]2CCN(c3ccc(S(C)(=O)=O)cc3F)C2)c1` [Example 20]: the negative-log EC50 (pEC50) is 6.29.

For the origin of these results see patent US20110166176A1, “COMPOUNDS AND COMPOSITIONS AS MODULATORS OF GPR119 ACTIVITY” (IRM LLC, priority 2008, published 2011).
